Here are results for three molecules from patent publication US11753634B2, “Method and apparatus for applying heat to living tissue” (NATIONAL TAIWAN UNIVERSITY, priority 2019, dated 2023).

Like-named read-outs stand apart in the source and are kept apart here.

Data set [1] relates to human pancreatic cancer cells (PANC-1). Put plainly: cells.
Source text: In addition, for the portion of the living tissue, the human pancreatic cancer cells (PANC-1) are used instead of the neural cells as an example for illustration. Furthermore, the living pancreatic cancer cells are also placed in the culture solution of petri dish in order to perform the heat treatment method of the present invention.
In addition, for the portion of the living tissue, the human pancreatic cancer cells (PANC-1) are used as an example for illustration. Furthermore, the living pancreatic cancer cells are also placed in the culture solution of petri dish in order to perform the heat treatment method of the present invention.
The control group refers to the comparison group without the heat treatment according to the method of the present invention.
Data set [2] concerns human neural cells (SH-SY5Y). The data set can be described thus: cell viability of human neural cells (SH-SY5Y) with/without cyclic heat treatment. To be noted: hydrogen peroxide processing.

As to `O=C(/C=C/c1ccc(O)c(O)c1)O[C@@H]1C[C@](O)(C(=O)O)C[C@@H](O)[C@H]1O` [CGA, chlorogenic acid], the viability at 200 µM came to 53% in data set [1] (PANC-1, read-out: cell viability, PANC-1, 200 μM CGA, ten times of heat treatment, 43.5° C. / approximately 36° C. (FIG. 10B)) and 88% in data set [1] (PANC-1, read-out: cell viability, PANC-1, 200 μM CGA, without the heat treatment (FIG. 10B)).
Turning to `Nc1ccn([C@@H]2O[C@H](CO)[C@@H](O)C2(F)F)c(=O)n1` [Gem, gemcitabine], the viability at 5 µM came out at 55% in data set [1] (PANC-1, read-out: cell viability, PANC-1, 5 μM Gem, ten times of heat treatment, 43.5° C. / approximately 36° C. (FIG. 11)) and 90% in data set [1] (PANC-1, read-out: cell viability, PANC-1, 5 μM Gem, without the heat treatment (FIG. 11)).
As to `OO` [hydrogen peroxide], the cell viability in data set [2] (control group without the heat treatment (FIG. 5A, 5B)) amounted to 55%; in data set [2] (eight times of heat treatment, max 40.9° C. / min 39.4° C. (FIG. 5A)) it was 70%; in data set [2] (eight times of heat treatment, max 42.0° C. / min 40.3° C. (FIG. 5B)), 82%.
